This note sets out measurements from US10112940B2, “Histone demethylase inhibitors” (Celgene Quanticel Research, Inc., priority 2014, dated 2018).

Like-named read-outs stand apart in the source and are kept apart here.

One test addresses JMJD2C (Homo sapiens (Human), UniProt Q9H3R0). Nature of the test: JMJD2C in vitro enzyme inhibition assay (TR-FRET). It is filed as biochemical. To be noted: 0.3 nM JMJD2C, 300 nM H3K9me3-biotin peptide, 2 μM alpha-ketoglutaric acid, 30 minutes. Here is the method: This assay determines the ability of a test compound to inhibit JMJD2C demethylase activity. Baculovirus expressed JMJD2C (GenBank Accession #BC143571, AA 2-372) was purchased from BPS Bioscience (Cat#50105).
The ability of test compounds to inhibit the activity of JMJD2C was determined in 384-well plate format under the following reaction conditions: 0.3 nM JMJD2C, 300 nM H3K9me3-biotin labeled peptide (Anaspec cat #64360), 2 μM alpha-ketoglutaric acid in assay buffer of 50 mM HEPES, pH7.3, 0.005% Brij35, 0.5 mM TCEP, 0.2 mg/ml BSA, 50 μM sodium L-ascorbate, and 2 μM ammonium iron(II) sulfate. Reaction product was determined quantitatively by TR-FRET after the addition of detection reagent Phycolink Streptavidin-allophycocyanin (Prozyme) and Europium-anti-di-methylated histone H3 lysine 9 (H3K9me2) antibody (PerkinElmer) in the presence of 5 mM EDTA in LANCE detection buffer (PerkinElmer) at a final concentration of 50 nM and 1 nM, respectively.
The assay reaction was initiated by the following: 2 μl of the mixture of 900 nM H3K9me3-biotin labeled peptide and 6 μM alpha-ketoglutaric acid with 2 μl of 11-point serial diluted inhibitor in 3% DMSO were added to each well of the plate, followed by the addition of 2 μl of 0.9 nM JMJD2C to initiate the reaction. The reaction mixture was incubated at room temperature for 30 minutes, and terminated by the addition of 6 μl of 5 mM EDTA in LANCE detection buffer containing 100 nM Phycolink Streptavidin-allophycocyanin and 2 nM Europium-anti-H3K9me2 antibody. Plates were read by EnVisionMultilabel Reader in TR-FRET mode (excitation at 320 nm, emission at 615 nm and 665 nm) after 1 hour incubation at room temperature. A ratio was calculated (665/615) for each well and fitted to determine inhibition constant (IC50).
The ability of the compounds disclosed herein to inhibit demethylase activity was quantified and the respective IC50 value was determined. Table 3 provides the IC50 values of various compounds disclosed herein.
On the technique in general: Time-resolved FRET reads energy transfer from a long-lived donor to a nearby acceptor.

The test system of test [1] is KYSE-150 esophageal carcinoma cell line. Nature of the test: In vitro cell-based assay: BrdU incorporation cell proliferation ELISA. Also noted: species or system human. To be noted: KYSE-150 cells, 168 hours compound incubation, read-out: Cellular IC50. On the procedure: Cell lines tested include the JMJD2C gene amplified cell line KYSE-150. This is a quantitative ELISA assay measuring DNA incorporation of BrdU during S-phase as a direct readout of cellular proliferation.
Assay Principle: This is a colorimetric immunoassay for the quantification of cell proliferation. Cells treated for 168 hours with test compounds are assayed for their ability to go through S-phase as a measure of their proliferative potential.
Assay Method: The human KYSE-150 (SMAD4 mut, TP53 mut) esophageal carcinoma cell line was seeded at 2,000 cells/well on a 96-well tissue culture treated plate. After an overnight incubation, cells were treated with compound in an 11-point dilution series with final concentrations ranging from 100 μM to 2 nM. Cells were then incubated in the presence of compound for 168 hours. After compound incubation the cells were assayed using a BrdU Cell Proliferation ELISA (Roche). The cells were first incubated with BrdU labeling reagent for 2 hours. After 2 hours, the BrdU incorporated cells were fixed and denatured, probed with an anti-BrdU-Peroxidase antibody for 1.5 hours and washed. Finally, a tetramethylbenzidine peroxidase substrate was added to each well for 15 minutes followed by a H2SO4 stop solution. The plate was read at 450 nm, and the raw optical density data was transferred into XLFit (IDBS) for IC50 calculation using the formula: fit=(D+((Vmax*(x^n))/((x^n)+(Km^n))))
Table 4 provides the cellular IC50 values of various compounds disclosed herein.

JMJD2C, sequence (Q9H3R0 2-372): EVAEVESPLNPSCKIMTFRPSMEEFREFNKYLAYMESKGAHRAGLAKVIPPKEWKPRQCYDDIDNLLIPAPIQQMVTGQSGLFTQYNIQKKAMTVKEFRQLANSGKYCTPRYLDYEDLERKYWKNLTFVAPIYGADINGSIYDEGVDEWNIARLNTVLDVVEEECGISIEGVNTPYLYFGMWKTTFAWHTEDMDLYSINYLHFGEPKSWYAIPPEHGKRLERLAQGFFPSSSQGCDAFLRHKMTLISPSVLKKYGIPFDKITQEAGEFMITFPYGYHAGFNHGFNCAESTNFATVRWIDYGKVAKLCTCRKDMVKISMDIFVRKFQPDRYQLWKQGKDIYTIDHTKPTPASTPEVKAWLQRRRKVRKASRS

Turning to `CCN(c1ccc(Oc2nc(O)c3ccncc3n2)cc1)c1ccc(C(C)C)cc1` [Example 117, 2-(4-(ethyl(4-isopropylphenyl)amino)phenoxy)pyrido[3,4-d]pyrimidin-4-ol], the half-inhibitory concentration (IC50) (commonly the point on the concentration scale where inhibition reaches its midpoint) was 1 to 10 µM against JMJD2C and ≤ 0.1 µM in test [1] (Homo sapiens).
On to `Oc1nc(Oc2ccc3c(ccn3-c3ccccc3)c2)nc2cnccc12` [Example 103, 2-(1-phenylindol-5-yl)oxypyrido[3,4-d]pyrimidin-4-ol], for which the IC50 was 1 to 10 µM against JMJD2C and > 10 µM in test [1] (Homo sapiens).
The corresponding values for `CN(C)c1cccc(N(C)c2ccc(Oc3nc(O)c4ccncc4n3)cc2)c1` [Example 47, 2-[4-[3-(dimethylamino)-N-methylanilino]phenoxy]pyrido[3,4-d]pyrimidin-4-ol] are 0.1 to 1 µM and 0.1 to 1 µM.
Regarding `CN(C(=O)Cc1ccccc1)c1ccc(Oc2nc(O)c3ccncc3n2)cc1` [Example 24, N-[4-(4-hydroxy-pyrido[3,4-d]pyrimidin-2-yloxy)-phenyl]-N-methyl-2-phenyl-acetamide], the half-inhibitory concentration (IC50) is 0.1 to 1 µM against JMJD2C and > 10 µM in test [1] (Homo sapiens).
For the molecule `CN(c1ccc(Oc2nc(O)c3ccncc3n2)cc1)c1ccccc1F` [Example 96], the IC50 on JMJD2C lay in the range of 0.1 to 1 µM; in test [1], 1 to 10 µM.
As for `Cc1cc(N2CCN(C)CC2)cc(N(C)c2ccc(Oc3nc(O)c4ccncc4n3)cc2)c1` [Example 90, 2-[4-[N,3-dimethyl-5-(4-methylpiperazin-1-yl)anilino]phenoxy]pyrido[3,4-d]pyrimidin-4-ol], the half-inhibitory concentration (IC50) was ≤ 0.1 µM at JMJD2C and > 10 µM in test [1] (Homo sapiens).
The corresponding values for `CN(c1ccc(OCC(F)(F)F)cc1)c1ccc(Oc2nc(O)c3ccncc3n2)cc1` [Example 73, 2-[4-[N-methyl-4-(2,2,2-trifluoroethoxy)anilino]phenoxy]pyrido[3,4-d]pyrimidin-4-ol] are 0.1 to 1 µM and ≤ 0.1 µM.
Turning to `CC(c1ccc(N(C)c2ccc(Oc3nc(O)c4ccncc4n3)cc2)cc1)C1CC1` (stereo not shown) [Example 39, 2-(4-{[4-(1-cyclopropyl-ethyl)-phenyl]-methyl-amino}-phenoxy)-pyrido[3,4-d]pyrimidin-4-ol], the figures for the half-inhibitory concentration (IC50) (against JMJD2C; in test [1] (Homo sapiens)) were 1 to 10 µM and ≤ 0.1 µM, respectively.
For the molecule `CNCCC(C)c1ccc(N(C)c2ccc(Oc3nc(O)c4ccncc4n3)cc2)cc1` (stereo not shown) [Example 72, 2-[4-[N-methyl-4-[4-(methylamino)butan-2-yl]anilino]phenoxy]pyrido[3,4-d]pyrimidin-4-ol], the IC50 at JMJD2C was ≤ 0.1 µM; in test [1] (Homo sapiens), > 10 µM.
For the molecule `CN(c1ccc(Oc2nc(O)c3ccncc3n2)cc1)c1ccc(C(C)(C)O)cc1` [Example 64, 2-[4-[4-(2-hydroxypropan-2-yl)-N-methylanilino]phenoxy]pyrido[3,4-d]pyrimidin-4-ol], the IC50 (on JMJD2C; in test [1] (Homo sapiens)) was 0.1 to 1 µM each time.
Consider `CN(c1ccc(C#N)cc1)c1ccc(Oc2nc(O)c3ccncc3n2)cc1` [Example 81, 4-[4-(4-hydroxypyrido[3,4-d]pyrimidin-2-yl)oxy-N-methylanilino]benzonitrile], for which the half-inhibitory concentration (IC50) is 0.1 to 1 µM against JMJD2C and > 10 µM in test [1] (Homo sapiens).
The corresponding values for `CN(c1ccc(Oc2nc(O)c3ccncc3n2)cc1)c1cccc(N2CCCC(N)C2)c1` (stereo not shown) [Example 58, 2-[4-[3-(3-aminopiperidin-1-yl)-N-methylanilino]phenoxy]pyrido[3,4-d]pyrimidin-4-ol] are ≤ 0.1 µM and > 10 µM.
The matching figures for `Oc1nc(Oc2ccc(N3CCC(c4ccccc4)C3)cc2)nc2cnccc12` (stereo not shown) [Example 54, 2-[4-(3-phenylpyrrolidin-1-yl)phenoxy]pyrido[3,4-d]pyrimidin-4-ol]: 1 to 10 µM and > 10 µM.
As to `COCCN(C)CC(C)c1ccc(N(C)c2ccc(Oc3nc(O)c4ccncc4n3)cc2)cc1` (stereo not shown) [Example 38, 2-{4-[(4-{2-[(2-methoxy-ethyl)-methyl-amino]-1-methyl-ethyl}-phenyl)-methyl-amino]-phenoxy}-pyrido[3,4-d]pyrimidin-4-ol], the IC50 was 0.1 to 1 µM on JMJD2C and ≤ 0.1 µM in test [1] (Homo sapiens).
For `CN(c1ccc(Oc2nc(O)c3ccncc3n2)cc1)c1ccc(C2=CCOCC2)cc1` [Example 98, 2-[4-[4-(3,6-dihydro-2H-pyran-4-yl)-N-methylanilino]phenoxy]pyrido[3,4-d]pyrimidin-4-ol], the IC50 against JMJD2C is 1 to 10 µM; in test [1] (Homo sapiens), > 10 µM.
The corresponding values for `CNCC(C)c1ccc(N(C)c2ccc(Oc3nc(O)c4ccncc4n3)cc2)cc1` (stereo not shown) [Example 70, 2-[4-[N-methyl-4-[1-(methylamino)propan-2-yl]anilino]phenoxy]pyrido[3,4-d]pyrimidin-4-ol] are ≤ 0.1 µM and > 10 µM.
For `CN(c1ccc(Oc2nc(O)c3ccncc3n2)cc1)c1cccc(N2CCOCC2)c1` [Example 19, 2-{4-[Methyl-(3-morpholin-4-yl-phenyl)-amino]-phenoxy}-pyrido[3,4-d]pyrimidin-4-ol], the IC50 (against JMJD2C; in test [1] (Homo sapiens)) was 0.1 to 1 µM throughout.
Regarding `CN(c1ccc(Cl)cc1)c1ccc(Oc2nc(O)c3ccncc3n2)cc1` [Example 94, 2-[4-(4-chloro-N-methylanilino)phenoxy]pyrido[3,4-d]pyrimidin-4-ol], the IC50 (at JMJD2C; in test [1] (Homo sapiens)) was 0.1 to 1 µM each time.
As to `CN(c1ccccc1)c1ccc(Oc2nc(O)c3ccncc3n2)cc1` [Example 5, 2-[4-(Methyl-phenyl-amino)-phenoxy]-pyrido[3,4-d]pyrimidin-4-ol], the IC50 (against JMJD2C; in test [1] (Homo sapiens)) was 0.1 to 1 µM throughout.
For the molecule `CN(Cc1ccccc1)c1ccc(Oc2nc(O)c3ccncc3n2)cc1` [Example 6, 2-[4-(Benzyl-methyl-amino)-phenoxy]-pyrido[3,4-d]pyrimidin-4-ol], the half-inhibitory concentration (IC50) was 0.1 to 1 µM at JMJD2C and ≤ 0.1 µM in test [1] (Homo sapiens).
The corresponding values for `CN(CCc1ccccc1)c1ccc(Oc2nc(O)c3ccncc3n2)cc1` [Example 13, 2-{4-[Methyl(2-phenylethyl)amino]phenoxy}pyridino[3,4-d]pyrimidin-4-ol] are 0.1 to 1 µM and 1 to 10 µM.
On to `C[C@@H](c1ccccc1)N(C)c1ccc(Oc2nc(O)c3ccncc3n2)cc1` [Example 51, 2-[4-[methyl-[(1S)-1-phenylethyl]amino]phenoxy]pyrido[3,4-d]pyrimidin-4-ol], for which the half-inhibitory concentration (IC50) on JMJD2C fell in the range of 0.1 to 1 µM; in test [1] (Homo sapiens), 1 to 10 µM.
Regarding `C[C@H](c1ccccc1)N(C)c1ccc(Oc2nc(O)c3ccncc3n2)cc1` [Example 52, 2-[4-[methyl-[(1R)-1-phenylethyl]amino]phenoxy]pyrido[3,4-d]pyrimidin-4-ol], the results for the IC50 (on JMJD2C; in test [1] (Homo sapiens)) were 0.1 to 1 µM and 1 to 10 µM, respectively.
Consider `Oc1nc(Oc2ccc3c(cnn3Cc3ccccc3)c2)nc2cnccc12` [Example 15, 2-(1-Benzyl-1H-indazol-5-yloxy)-pyridino[3,4-d]pyrimidin-4-ol], for which the IC50 lay in the range of 0.1 to 1 µM at JMJD2C and 1 to 10 µM in test [1] (Homo sapiens).
The corresponding values for `CN(c1ccc(OCC2CC2)cc1)c1ccc(Oc2nc(O)c3ccncc3n2)cc1` [Example 101, 2-[4-[4-(cyclopropylmethoxy)-N-methylanilino]phenoxy]pyrido[3,4-d]pyrimidin-4-ol] are 1 to 10 µM and 0.1 to 1 µM.
The corresponding values for `Oc1nc(Oc2ccc3c(ccn3Cc3ccccc3)c2)nc2cnccc12` [Example 4, 2-(1-Benzyl-1H-indol-5-yloxy)-pyrido[3,4-d]pyrimidin-4-ol] are 0.1 to 1 µM and 0.1 to 1 µM.
